Measurements reported in the NIST ThermoML archive (doi:10.1016/j.fluid.2014.02.004).
± gives the expanded uncertainty stated by the source.

Assay: osmotic coefficient (dimensionless); mn = molality of the nth substance listed, in mol/kg
Conditions: 298.15 K, 101 kPa, Liquid, isopiestic method

NCCCCCC(=O)O [6-aminohexanoic acid] + O
Conditions | osmotic coefficient
m1 = 0.1411 | 0.9889 ± 0.0006
m1 = 0.2493 | 0.9848 ± 0.0008
m1 = 0.3366 | 0.9833 ± 0.0008
m1 = 0.4538 | 0.9843 ± 0.0008
m1 = 0.617 | 0.9865 ± 0.0007
m1 = 0.6826 | 0.9886 ± 0.0006
m1 = 0.9388 | 1.0097 ± 0.0005
m1 = 1.388 | 1.036 ± 0.0018

NCCC(=O)O [3-aminopropanoic acid] + O
Conditions | osmotic coefficient
m1 = 0.1408 | 0.9912 ± 0.0004
m1 = 0.2482 | 0.9892 ± 0.0005
m1 = 0.335 | 0.988 ± 0.0006
m1 = 0.452 | 0.9882 ± 0.0006
m1 = 0.6148 | 0.9901 ± 0.0005
m1 = 0.6813 | 0.9905 ± 0.0005
m1 = 0.9542 | 0.9934 ± 0.0003
m1 = 1.43 | 1.0056 ± 0.0003

NCCCC(=O)O [4-aminobutanoic acid] + O
Conditions | osmotic coefficient
m1 = 0.1412 | 0.9884 ± 0.0006
m1 = 0.249 | 0.986 ± 0.0007
m1 = 0.3355 | 0.9866 ± 0.0007
m1 = 0.453 | 0.986 ± 0.0007
m1 = 0.6155 | 0.9889 ± 0.0006
m1 = 0.6809 | 0.991 ± 0.0005
m1 = 0.944 | 1.0041 ± 0.0002
m1 = 1.402 | 1.026 ± 0.0013

NCCCCC(=O)O [5-aminovaleric acid] + O
Conditions | osmotic coefficient
m1 = 0.1414 | 0.987 ± 0.0007
m1 = 0.2493 | 0.9848 ± 0.0008
m1 = 0.3362 | 0.9845 ± 0.0008
m1 = 0.4531 | 0.9858 ± 0.0007
m1 = 0.618 | 0.9849 ± 0.0008
m1 = 0.6834 | 0.9874 ± 0.0006
m1 = 0.9461 | 1.0019 ± 0.0001
m1 = 1.397 | 1.029 ± 0.0015
